These results are taken from publication PMC3745005 (Journal of biomolecular screening, 2012).

The target in the experiment is PDE4A (catalytic domain of PDE4A10) (Homo sapiens, UniProt P27815). Kind of experiment: enthalpy array nanocalorimetry, cAMP hydrolysis. Type of experiment: biochemical.
PDE4A (catalytic domain of PDE4A10), sequence (P27815 351-683): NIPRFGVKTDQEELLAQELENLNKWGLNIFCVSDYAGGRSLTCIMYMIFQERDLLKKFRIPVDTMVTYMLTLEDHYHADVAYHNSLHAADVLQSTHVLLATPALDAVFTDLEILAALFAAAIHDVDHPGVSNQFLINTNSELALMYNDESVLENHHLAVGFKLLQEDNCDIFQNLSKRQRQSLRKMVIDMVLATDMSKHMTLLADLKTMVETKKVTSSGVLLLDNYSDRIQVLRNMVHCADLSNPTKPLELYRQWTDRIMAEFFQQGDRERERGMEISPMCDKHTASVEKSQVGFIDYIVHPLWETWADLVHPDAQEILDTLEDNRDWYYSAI

For `CC(C)Cn1c(=O)n(C)c(=O)c2[nH]cnc21` [IBMX], affinity was put at a Ki of 8.3 ± 1.5 µM.
